Test results reported in ChEMBL document CHEMBL1201862, “PubChem BioAssay data set” (2004).
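These data come from cells grown in 96-well plates and exposed to compound for 48 hours at five concentrations. GI50 = concentration required for 50% inhibition of growth.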 Calls of active or inactive are those of the source. Cut-off read from the data, not from the text of the source: active = GI50 up to about 1.1 µM and inactive = higher.

What was measured:
Assay in all cases: NCI tumour cell line growth inhibition, 48 h
EKVX = test system: EKVX
HCT-15 = test system: HCT-15
HOP-62 = test system: HOP-62
K562 = test system: K562
Malme-3M = test system: Malme-3M
NCI-H23 = test system: NCI-H23
RPMI-8226 = test system: RPMI-8226
RXF 393 = test system: RXF 393
SF-268 = test system: SF-268
SN12C = test system: SN12C
SNB-75 = test system: SNB-75
SW-620 = test system: SW-620
HL-60 = test system: HL-60
NCI-H226 = test system: NCI-H226
HCC 2998 = test system: HCC 2998
SK-MEL-5 = test system: SK-MEL-5

| Compound | GI50 (EKVX) | GI50 (HCT-15) | GI50 (HOP-62) | GI50 (K562) | GI50 (Malme-3M) | GI50 (NCI-H23) | GI50 (RPMI-8226) | GI50 (RXF 393) | GI50 (SF-268) | GI50 (SN12C) | GI50 (SNB-75) | GI50 (SW-620) | GI50 (HL-60) | GI50 (NCI-H226) | GI50 (HCC 2998) | GI50 (SK-MEL-5) |
| --- | --- | --- | --- | --- | --- | --- | --- | --- | --- | --- | --- | --- | --- | --- | --- | --- |
| CCS[C@H]1NC(=O)C1[C@H](C)O[Si](C)(C)C(C)(C)C (some centres not stated) | > 100 µM (inactive) | > 100 µM | > 100 µM (inactive) | 34.3 µM (inactive) | > 100 µM (inactive) | > 100 µM (inactive) | 31.6 µM (inactive) | 52.8 µM (inactive) | > 100 µM (inactive) | > 100 µM (inactive) | > 100 µM (inactive) | > 100 µM (inactive) |  |  |  |  |
| CCOc1cccc2c1N[S@@](=O)S2 | > 100 µM (inactive) | > 100 µM |  | 53.3 µM (inactive) | > 100 µM (inactive) | > 100 µM (inactive) | 98.2 µM (inactive) |  | > 100 µM (inactive) | > 100 µM (inactive) | > 100 µM (inactive) | > 100 µM (inactive) | > 100 µM (inactive) | > 100 µM (inactive) |  |  |
| O=C(Nc1cccc(Cl)c1)C(=O)C(C(=O)c1ccc2ccccc2c1)C1OC(=O)c2ccccc21 (configuration not stated) | 32.7 µM (inactive) | > 10 µM | 16.8 µM (inactive) | 16.1 µM (inactive) | 13.1 µM (inactive) | 7.94 µM (inactive) | 7.67 µM (inactive) |  | 7.29 µM (inactive) | 18.6 µM (inactive) | 5.31 µM (inactive) | 18.9 µM (inactive) | 9.16 µM (inactive) | 2.86 µM (inactive) | 10.2 µM (inactive) | 14.7 µM (inactive) |
| O=C1Nc2cc([N+](=O)[O-])c(Br)cc2C1=O | 22.4 µM (inactive) | 18.9 µM | 28.4 µM (inactive) | 18.1 µM (inactive) | 22.5 µM (inactive) | 17.3 µM (inactive) | 17.6 µM (inactive) | 24.7 µM (inactive) | 20.9 µM (inactive) | 18.4 µM (inactive) | 19 µM (inactive) | 19.3 µM (inactive) |  | 18.5 µM (inactive) | > 10 µM (inactive) | 21.1 µM (inactive) |
| COc1ccc(/C=C/C(=O)C(C)C)cc1 | 45.3 µM (inactive) | 27.2 µM | 43.8 µM (inactive) | 32.8 µM (inactive) | 42 µM (inactive) | 32.6 µM (inactive) |  |  | 42.3 µM (inactive) | 54.3 µM (inactive) | 40.6 µM (inactive) | 33 µM (inactive) | 22.9 µM (inactive) |  | > 100 µM (inactive) | 48.1 µM (inactive) |
